{
  "source": "patent US20030017976A1",
  "about": "“Therapeutic properties of liposome-encapsulated immunomodulators” (priority 1998, published 2003)",
  "key": {"[1]": {"test_system": "human monocytes", "test": "Northern blot of cytokine mRNA in monocytes", "format": "cell-based", "settings": "LPS 100 ng/ml, MLV-JBT3002 500 nmol/ml, JBT3002 1 ng/ml; 1-3 h", "procedure": "Total RNA was extracted using Tri reagent™ kit according to the manufacturer's instructions (Molecular Research Center, Inc., Cincinnati, Ohio). […] Cytokine and GAPDH and mRNA were detected using cDNA probes of Human TNF-α, IL-1β, IL-6 and rat glyceraldehyde-3-phosphate dehydrogenase (GAPDH) labeled by nick translation with α-^32P-CTP. Hybridizations were performed as described (Dong, Z. et al. J Natl. Cancer Inst. (1994) 86:913)."}, "[2]": {"test_system": "TG-Mø from C57BL/6 mice", "test": "NO production in TG macrophages by free-form and tablet JBT 3002", "format": "cell-based, mouse", "settings": "24 hr", "procedure": "Preparation of tablet to free-form in water. Tablet placed in 10 ml sterile, pyrogen-free water for 2-3 min with shaking at room temperature, then 10 ml more water added using Lot PCOO2.115. At 100 μg/tablet, this gave 5 ug/ml active material. Solution opaque with “carrier”-appearing material. Settled to bottom. Placed at 37° C. for about 5 min. pH tested at 8.0. Two aliquots of 10 ml taken. One aliquot was taken to pH 1.5 by a single drop of concentrated HCl. Both samples were placed in a water bath at 37° C. for 30 min. The low pH sample was restored to pH 7.7 with NaOH (took about 5 drops of the NaOH, IN solution). The samples were brought to 50 ml by addition of water, and the final pH was 8.0 for the original and 7.43 for the low pH sample. The solutions were still slightly opaque and filtering with a 0.2 micron filter cleared the solution. Aliquots of about 25 ml were measured in an assay for NO production by macrophages and testing of the working dilution for endotoxin."}, "[3]": {"test_system": "CT-26 colon carcinoma", "test": "Therapy of experimental liver metastasis of CT-26 colon carcinoma with CPT-11 and oral JBT 3002"}, "[4]": {"test_system": "CT-26P colon carcinoma", "test": "Combination therapy of CT-26P colon carcinoma with CPT-11 and oral liposomal JBT3002", "format": "in vivo, mouse", "settings": "day 17", "procedure": "This course of therapy was repeated weekly for about three weeks prior to tissue harvest. Experimental Groups/Procedures: 40 Balb/c mice were divided into 8 groups of 5 mice each. On day 0, the spleens of the mice were injected with 15,000 cultured CT-26P cells. The groups were then treated as follows: The spleens of Balb/c mice were injected with 15,000 cultured CT-26P colon carcinoma cells on day 0. […] Treated mice received two weeks of chemotherapy and three weeks of the macrophage activator. Tissues were harvested on day 17. The spleens and livers were weighed, the extent of metastasis was graded (denoted below) and histology prepared."}, "[5]": {"test_system": "human monocytes", "test": "Western blot of tyrosine phosphorylation, JNK1 band shift, MAP kinase activation in monocytes", "format": "cell-based", "settings": "20 min", "procedure": "After two washes with PBS containing 1 mM Na3 VO4 and 5 mM EDTA, the cells were scraped into 0.1 ml lysis buffer (1% Triton X-100, 20 mM Tris pH 8.0, 137 MM NaCl, 10% glycerol, 1 mM Na3 VO4, 2 mM EDTA, 1 mM PMSF, 20 μM leupeptin, 0.15 U/ml aprotinin). The lysate was placed on ice for 20 min and then centrifuged at 14,000 rpm for 10 min at 4° C. The samples (50 μg) were mixed with sample buffer (62.5 mM Tris/HCl, pH 6.8, 2.3% SDS, 100 mM DTT, and 0.05% bromophenol blue), boiled and, separated on 10% SDS-PAGE. The protein was then transferred onto 0.45 μm nitrocellulose membranes. The filter was blocked with 3% BSA and 1% ovalbumin (ICN Biomedicals, Inc.) in TBS (20 mM Tris/HCl, pH 7.5, 150 mM NaCl), probed with antibodies as indicated in the Results in TTBS (TBS containing 0.1% Tween 20), incubated with a second antibody in the buffer, and visualized by the ECL Western blotting detection system (Dong, Z., et al. J Exp. Med. (1993) 177:1071; Dong, Z. et al. J. Leukoc. Biol. (1993) 58:725)."}, "[6]": {"settings": "Table 15, oral JBT 3002 0.05 μg/dose 3 consecutive days and/or CPT-11 100 mg/kg 4 daily i.p., day 21"}, "[7]": {"settings": "Table 16, oral JBT3002 0.05 μg dose thrice weekly 3 weeks and/or CPT-11 100 mg/kg i.p. once a week, day 24"}},
  "note": "Marks after values point to notes of the source that are not given here.",
  "data": [
    {"substance": "N-hexadecanol-S-[2(R)-3-diodecanoyloxypropyl]-L-cysteinyl-L-alanyl-D-isoglutaminyl-glycyl-taurine sodium salt [JBT3002]", "values": [
      {"measurement": "mRNA for TNF-α, IL-1β, and IL-6", "setting": "[1]", "result": "High levels of mRNA for TNF-α, IL-1β, and IL-6"},
      {"measurement": "nitrite", "setting": "[2]; Table 17, JBT 0.003 ng/ml, IFN-γ (10 U/ml)", "result": 17.5, "unit": "µM"},
      {"measurement": "nitrite", "setting": "[2]; Table 17, JBT 0.003 ng/ml, medium", "result": 0, "unit": "µM"},
      {"measurement": "nitrite", "setting": "[2]; Table 17, JBT 0.016 ng/ml, IFN-γ (10 U/ml)", "result": 33.7, "unit": "µM"},
      {"measurement": "nitrite", "setting": "[2]; Table 17, JBT 0.016 ng/ml, medium", "result": 0, "unit": "µM"},
      {"measurement": "nitrite", "setting": "[2]; Table 17, JBT 0.08 ng/ml, IFN-γ (10 U/ml)", "result": 41, "unit": "µM"},
      {"measurement": "nitrite", "setting": "[2]; Table 17, JBT 0.08 ng/ml, medium", "result": 0, "unit": "µM"},
      {"measurement": "nitrite", "setting": "[2]; Table 17, JBT 0.4 ng/ml, IFN-γ (10 U/ml)", "result": 44.7, "unit": "µM"},
      {"measurement": "nitrite", "setting": "[2]; Table 17, JBT 0.4 ng/ml, medium", "result": 0, "unit": "µM"},
      {"measurement": "nitrite", "setting": "[2]; Table 17, JBT 2 ng/ml, IFN-γ (10 U/ml)", "result": 53.1, "unit": "µM"},
      {"measurement": "nitrite", "setting": "[2]; Table 17, JBT 2 ng/ml, medium", "result": 0, "unit": "µM"},
      {"measurement": "nitrite", "setting": "[2]; Table 17, JBT 10 ng/ml, IFN-γ (10 U/ml)", "result": "60.9* μM"},
      {"measurement": "nitrite", "setting": "[2]; Table 17, JBT 10 ng/ml, medium", "result": 8.4, "unit": "µM"},
      {"measurement": "nitrite", "setting": "[2]; Table 18, JBT3002 0.0001 ng/ml, 10 U/ml IFN-γ", "result": 0},
      {"measurement": "nitrite", "setting": "[2]; Table 18, JBT3002 0.0001 ng/ml, medium", "result": 0},
      {"measurement": "nitrite", "setting": "[2]; Table 18, JBT3002 0.001 ng/ml, 10 U/ml IFN-γ", "result": 8.5},
      {"measurement": "nitrite", "setting": "[2]; Table 18, JBT3002 0.001 ng/ml, medium", "result": 0},
      {"measurement": "nitrite", "setting": "[2]; Table 18, JBT3002 0.01 ng/ml, 10 U/ml IFN-γ", "result": 19.5},
      {"measurement": "nitrite", "setting": "[2]; Table 18, JBT3002 0.01 ng/ml, medium", "result": 0},
      {"measurement": "nitrite", "setting": "[2]; Table 18, JBT3002 0.1 ng/ml, 10 U/ml IFN-γ", "result": 27.7},
      {"measurement": "nitrite", "setting": "[2]; Table 18, JBT3002 0.1 ng/ml, medium", "result": 0},
      {"measurement": "nitrite", "setting": "[2]; Table 18, JBT3002 1 ng/ml, 10 U/ml IFN-γ", "result": 37.7},
      {"measurement": "nitrite", "setting": "[2]; Table 18, JBT3002 1 ng/ml, medium", "result": 0},
      {"measurement": "nitrite", "setting": "[2]; Table 18, JBT3002 10 ng/ml, 10 U/ml IFN-γ", "result": 47.1},
      {"measurement": "nitrite", "setting": "[2]; Table 18, JBT3002 10 ng/ml, medium", "result": 0.5},
      {"measurement": "dose producing similar therapeutic effects as 1.0 μg/dose of MLV-JBT 3002", "setting": "[3]; Table 11", "result": 0.01, "unit": "μg/dose"},
      {"measurement": "Liver metastasis Incidence", "setting": "[3]; [6]", "result": "9/10"},
      {"measurement": "Liver weight", "setting": "[3]; [6]", "result": "1.6 ± 0.2^e g"},
      {"measurement": "Spleen tumor Incidence", "setting": "[3]; [6]", "result": "10/10"},
      {"measurement": "Spleen tumor Mean tumor volume", "setting": "[3]; [6]", "result": "88 ± 34^f mm^3"},
      {"measurement": "Liver metastasis Incidence", "setting": "[3]; [7]", "result": "9/10"},
      {"measurement": "Liver weight", "setting": "[3]; [7]", "result": "4.2 ± 1.6", "unit": "g"},
      {"measurement": "Spleen tumor Incidence", "setting": "[3]; [7]", "result": "8/10"},
      {"measurement": "Spleen tumor Mean tumor volume", "setting": "[3]; [7]", "result": "241 ± 84", "unit": "mm^3"},
      {"measurement": "potency relative to liposomal formulation", "setting": "[3]; Tables 12 and 14", "result": "more potent than liposomal formulation"},
      {"measurement": "Spleen Weights, mean", "setting": "[4]; oral JBT3002 1 μg/dose in PC liposomes 3x/week alone", "result": "1.137 ± 0.628", "unit": "grams"},
      {"measurement": "Liver Weights, mean", "setting": "[4]; oral liposomal JBT3002 1 μg/dose 3x/week alone", "result": "1.842 ± 0.498", "unit": "grams"},
      {"measurement": "potency in triggering intracellular signaling pathways", "setting": "[5]", "result": "significantly more potent than LPS"}
    ]}
  ]
}
